Experimental findings from ChEMBL document CHEMBL3638847, “Substituted piperidine compounds and their use as orexin receptor modulators” (2015) are described below.

SMILES strings stand for the structures.

Test [1] concerns the target T1, Orexin/Hypocretin receptor type 1 (Homo sapiens, UniProt O43613).
T1 sequence (O43613 whole entry): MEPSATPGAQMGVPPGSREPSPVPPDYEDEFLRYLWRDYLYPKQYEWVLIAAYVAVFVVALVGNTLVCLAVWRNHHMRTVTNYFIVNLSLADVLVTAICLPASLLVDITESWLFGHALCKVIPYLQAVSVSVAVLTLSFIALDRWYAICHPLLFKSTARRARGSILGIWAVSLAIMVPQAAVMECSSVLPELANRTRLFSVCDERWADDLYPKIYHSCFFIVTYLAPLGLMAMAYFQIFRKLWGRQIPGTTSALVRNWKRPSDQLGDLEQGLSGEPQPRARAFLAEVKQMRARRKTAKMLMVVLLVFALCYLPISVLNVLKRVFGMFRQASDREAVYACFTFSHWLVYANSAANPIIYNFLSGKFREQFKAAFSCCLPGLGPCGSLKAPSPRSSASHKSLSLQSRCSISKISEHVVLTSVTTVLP
As to the kind of experiment: (§1) Radioligand Binding Assay: Human Embryonic Kidney 293 cells (HEK293) stably expressing rat orexin 1 receptor(Genebank accession number NM_001525) or […] (CHO) stably expressing human orexin 1 receptor (Genebank accession number […]) were grown to confluency in DMEM (Hyclone, cat # SH30022), 10% FBS, IX Pen/Strep, IX sodium pyruvate, 10 mM HEPES, 600 ug/mL G418 and DMEM/F12 (Gibco, Cat #1 1039), 10%FBS, IX Pen/Strep, 600 ug/mL G418 media, respectively on 150 cm2 tissue culture plates, washed with 5 mM EDTA in PBS (HyClone Dulbecco's Phoshpate Buffered Saline IX with Calcium and Magnesium, Cat # SH30264.01, hereafter referred to simply as PBS) and scraped into 50 ml tubes. After centrifugation (2K xG, 5 min at 4 C), the supernatant was aspirated and the pellets frozen and stored at -80C. Cells were resuspended in PBS in the presence of 1 tablet of protease inhibitor cocktail (Roche, Cat. #1 1836145001) per 50 mL. Each cell pellet from a 15 cm plate was resuspended in 10 mL. In kind it is cell-based.

The target of test [2] is T2, Orexin/Hypocretin receptor type 1 (Rattus norvegicus, UniProt P56718).
T2 sequence (P56718 whole entry): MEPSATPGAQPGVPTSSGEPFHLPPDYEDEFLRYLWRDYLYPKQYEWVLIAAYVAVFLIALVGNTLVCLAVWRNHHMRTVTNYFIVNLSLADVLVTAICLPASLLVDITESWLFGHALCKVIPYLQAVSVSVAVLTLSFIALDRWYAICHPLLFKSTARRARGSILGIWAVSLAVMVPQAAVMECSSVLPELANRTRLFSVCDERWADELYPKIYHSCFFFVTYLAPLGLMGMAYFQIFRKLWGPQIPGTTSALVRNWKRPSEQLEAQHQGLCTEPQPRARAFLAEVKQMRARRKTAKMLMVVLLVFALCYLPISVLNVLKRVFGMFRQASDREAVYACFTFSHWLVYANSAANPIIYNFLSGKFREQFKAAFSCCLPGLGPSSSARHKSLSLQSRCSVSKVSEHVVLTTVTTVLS
Described as §1. In kind it is cell-based.

The next test deals with T3, Orexin receptor type 2 (Homo sapiens, UniProt O43614).
T3 sequence (O43614 whole entry): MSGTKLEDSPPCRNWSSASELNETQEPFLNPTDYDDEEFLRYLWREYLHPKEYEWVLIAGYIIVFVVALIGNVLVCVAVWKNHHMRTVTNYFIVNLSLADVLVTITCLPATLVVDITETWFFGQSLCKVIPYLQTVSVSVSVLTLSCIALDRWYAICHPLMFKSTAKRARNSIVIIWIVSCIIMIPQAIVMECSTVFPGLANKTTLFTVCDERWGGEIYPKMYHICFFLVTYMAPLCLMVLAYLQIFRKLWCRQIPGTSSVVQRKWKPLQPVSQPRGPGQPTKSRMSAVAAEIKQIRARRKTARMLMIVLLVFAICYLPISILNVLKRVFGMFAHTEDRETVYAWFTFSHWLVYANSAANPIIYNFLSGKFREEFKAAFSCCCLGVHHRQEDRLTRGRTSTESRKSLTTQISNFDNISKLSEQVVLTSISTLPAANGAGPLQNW
The test is described as follows: Radioligand Binding Assay: HEK293 stably expressing human orexin 2 receptor (Genebank accession numberNM_001526) were grown to confluency in DMEM (Hyclone, cat # SH30022) , 10%FBS, IX Pen/Strep, IX NaPyruvate, 10 mM HEPES, 600 ug/ml G418 media on 150 cm2 tissue culture plates, washed with 5 mM EDTA in PBS (HyClone Dulbecco's Phoshpate Buffered Saline IX with Calcium and Magnesium, Cat # SH30264.01, hereafter referred to simply as PBS) and scraped into 50 ml tubes. After centrifugation (2K xG, 5 min at 4°C), the supernatant was aspirated and the pellets frozen and stored at -80°C. Cells were resuspended in PBS in the presence of 1 tablet of protease inhibitor cocktail (Roche, Cat. #11836145001) per 50 mL. Each cell pellet from a 15 cm plate was resuspended in 10 mL, stored on ice, and homogenized for 45 sec just prior to addition to the reactions. Competition binding experiments in 96 well polypropylene plates were performed using [3H]-EMPA (Moraveck Corporation, specific activity = 29.6 Ci/mmol).

A word on the Ki: it is a dissociation constant, usually derived from enzyme kinetics or from competition with a known ligand. In the case of `Cc1cnc(C(=O)N2CCC[C@@H](Nc3ccc(C(F)(F)F)cn3)[C@@H]2C)c(-c2ncccn2)c1`, the Ki in test [1] is 26 nM; in test [2], 19 nM; on Orexin receptor type 2 it was 91 nM.
